Reference: US20030008273A1, “Methods for increasing the survival of neuronal cells” (priority 2001, published 2003)
Entries after “also recorded” stand apart in the source; their conditions may differ.

Assays:
[1] = test system: primary ventral midbrain cells (dopamine secreting cells); assay: Primary ventral midbrain cultures, count of TH-immunoreactive (dopamine) cells; assay type: cell-based, rat; conditions: for number of TH-immunoreactive (IR) cells: ligand alone, increasing concentrations, 3-5 days
Description: (§1) Ventral midbrains from rat embryos at stage E15.5 were dissected, mechanically dissociated, and plated on poly-D-lysine coated 12 well plates in serum-free medium (N2; consisting of a 1:1 mixture of F12 and MEM with 5 μg/ml insulin, 100 μg/ml transferrin, 60 μM putrescine, 20 nM progesterone, 30 nM selenium, 6 mg/ml glucose and 1 mg/ml bovine serum albumin).
(§2) Ventral midbrain, cortex and hippocampus from rat embryos at stage E14.5-15.5 were dissected, mechanically dissociated and plated on poly-D-lysine coated 12 or 24 well plates in serum free media (N2, consisting of a 1:1 mixture of MEM (+15 mM HEPES buffer) and Ham's F12 medium (+6 mg/ml glucose, 1 mg/ml bovine serum albumin, 5 ug/ml insulin, 100 ug/ml transferrin, 60 μM putrescine, 20 nM progesterone, 30 nM selenium and 1 mM glutamine). Ligands (all-trans RA, 9-cis retinoic acid, LG268, docosahexanoic acid (DHA), SR11237, TTNPB, and LB1208; stock solutions in DMSO) were diluted to working concentrations in N2, added to cells and incubated 3-5 days. GDNF was dissolved in phosphate-buffered saline (PBS) containing 1 mg/ml bovine serum albumin. These experiments were conducted in triplicate. Paraformaldehyde fixed cultures were then incubated over night with anti-tyrosine hydroxylase (TH) (1:1000, Pel-Freez), anti-NeuN (1:200, Chemicon) or anti-Nurr1 (1: 10,000, Santa Cruz) antibodies in PBS containing 0.5% (TH and NeuN) or 10% (Nurr1) fetal calf serum and 0.3% triton X100. Following rinses, cultures were incubated with biotinylated secondary antibody followed by detection of immuno-staining using the ABC immunoperoxidase kit from Vector. Cells were counted using brightfield microscopy (Nikon Eclipse EM 300). Cell counting was performed independently by two individuals to derive unbiased results.

RAR = assay: Luciferase reporter assay in JEG3 cells transfected with gal4-RAR; assay type: cell-based; conditions: JEG3, MH100-tk-luc reporter
Description: (§4) Human choriocarcinoma cells, JEG3, were transfected in triplicate in 24-well plates. […] Each well was transfected with 100 ng of the gal4-binding luciferase reporter construct, MH100-tk-luc, 100 ng of CMX-RXR (Perlmann et al. (1995) Genes and Dev. 9: 769-782), and 100 ng of either CMX-gal4-Nurr1 (Perlmann et al. (1995) Genes and Dev. 9: 769-782), or CMX-gal4-Nurr1 dim^−.
(§5) In reporter assays of conditioned media and 9-cis retinoic acid titration experiments, a CMX-gal4-RAR construct (Perlmann et al. (1995) Genes and Dev. 9: 769-782) was also used. In all experiments, CMX-βgal (200 ng) (Perlmann et al. (1995) Genes and Dev. 9, 769-782) was used as an internal control. Following transfection of JEG3 cells (6 hours post-transfection), calcium precipitate was removed by washing with fresh medium. Tissue explants or conditioned media were then added to the cells. After 24 hours, cells were harvested and assayed for luciferase and reference β-galactosidase activity on a luminometer/photometer.

[2] = test system: RXR (Nurr1-RXR heterodimer); conditions: JEG3, MH100-tk-luc reporter
Description: as §4, §5
Reporter experiments were performed as previously described. […] Briefly, an expression vector encoding a derivative of the orphan-nuclear receptor Nurr1 (GAL4-Nurr1), was cotransfected into JEG3 cells with an expression vector encoding RXR and a reporter expression vector containing GAL4 binding sites in operable linkage with a luciferase reporter gene. […]

[3] = test system: primary ventral mesencephalic cultures; assay: Primary ventral mesencephalic cultures, count of NeuN-positive cells; assay type: cell-based, rat
Description: as §2, with “Cell counting was performed independently by two individuals to derive unbiased results.” left out

cortex cultures = assay: Primary cortex cultures, count of Nurr1-positive and non-expressing cells; assay type: cell-based, rat
Description: as §2, with “Cell counting was performed independently by two individuals to derive unbiased results.” left out

Nurr1+/+ cortical cells = assay: Primary cortical cultures from wild-type (Nurr1+/+) mice, NeuN count; assay type: cell-based, mouse; conditions: 0.1 μM, three days
Description: (§3) Nurr1^+/− females were mated with Nurr1^+/− males to generate embryo litters of mixed genotypes (25%^+/+, 50%^+/− and 25%^−/−) as previously described (Zetterström et al, Science 1997). Pregnant females were sacrificed and embryos at embryonic stage E15.5 were dissected. Tails were removed for genotyping. Brains were fine-dissected and meninges removed. Both cortices from each embryo were removed and placed in 500 μl culture medium (N2). When all embryos in the litter were dissected, the cortices were triturated by mechanical dissociation using a fire-polished Pasteur pipette. […] To avoid excessive cell death due to the extended dissection period when using gene targeted mice as compared to wild-type rats, 50 μl cell suspension was routinely plated. This generated cultures in the range of 200.000-470.000 cells per well. Six wells were plated per embryo; three were incubated in N2 only and three with N2+0.1 μM LG268. Cells were incubated for three days and thereafter fixed in 4% paraformaldehyde for 30 minutes and rinsed. For detection of neuronal nuclei, NeuN (diluted 1:300, Chemicon) was used in immunohistochemistry where visualization was with the ABC-kit from Vector. Cells were counted using brightfield microscopy (Eclipse E300M).

Nurr1-/- cortical cells = assay: Primary cortical cultures from Nurr1-knock-out (Nurr1-/-) mice, NeuN count; assay type: cell-based, mouse; conditions: 0.1 μM, three days
Description: as §3

hippocampal cultures = assay: Primary hippocampal cultures, count of Nurr1-positive and non-expressing cells; assay type: cell-based, rat
Description: as §2, with “Cell counting was performed independently by two individuals to derive unbiased results.” left out

[4] = test system: primary midbrain cultures; assay: BrdU pulse labeling of primary midbrain cultures (proliferation); assay type: cell-based, rat; conditions: 0.1 μM
Description: as §1
Bromodeoxyuridine (BrdU) was added in relevant experiments 4-6 hours before fixation. After fixation with 4% paraformaldehyde for 45 minutes, cells were rinsed in PBS. BrdU incorporation was detected by incubating cells with 2 M hydrochloric acid prior to digesting with 0.25% pepsin (Sigma). Following PBS rinses, cells were incubated in blocking solution (0.5% bovine serum albumin, 0.5% Tween-20 in PBS), and thereafter incubated with anti-BrdU antibody (Dako A/S; diluted 1:20 in blocking solution) at 4° C. overnight. Antibody-binding was detected with anti-mouse CY3-conjugated IgG (Jackson ImmunoResearch Labs Inc.). Cells were analyzed using inverted epifluorescent microscopy.

For `CC1=C(/C=C/C(C)=C\C=C\C(C)=C\C(=O)O)C(C)(C)CCC1` [9cisRA, 9-cis retinoic acid], the “number of TH-IR neurons when combined with RAR antagonist RO” value ([1]; increasing concentrations combined with R041-5253 (RO)) was “increase with increasing concentrations”, the “number of TH-immunoreactive (IR) cells” value [1] was “does not affect the number of TH-IR cells” and the “activation of RAR reporter (titration)” value (RAR) was “efficient ligand”. The “activation of RXR reporter (titration)” value [2] was “efficient ligand”.

For `CC/C=C\C/C=C\C/C=C\C/C=C\C/C=C\C/C=C\CCC(=O)O` [DHA, docosahexanoic acid], the “number of TH-immunoreactive (IR) cells” value [1] was “increased the number of TH-IR cells in a dose-dependent manner; also recorded: efficiently increased the number of dopamine neurons” and the “number of NeuN-positive cells (entire neuronal-cell population)” value [3] was “do not produce a general increase”.

For `Cc1cc2c(cc1C1(c3ccc(C(=O)O)cn3)CC1)C(C)(C)CCC2(C)C` [LG268], the “increase in number of Nurr1-positive cells” value (cortex cultures) was 39%, the “number of Nurr1 non-expressing cells” value (cortex cultures) was “did not increase” and the “total number of neurons (NeuN immunoreactivity)” value (Nurr1+/+ cortical cells) was “significantly increased”. The “efficiency compared to GDNF (TH-IR cells)” value ([1]; FIG. 12C, comparison of SR11237, LG268 and GDNF) was “more potent than either SR11237 or GDNF”, the “number of TH-immunoreactive (IR) cells” value [1] was “dose-dependent increase; also recorded: efficiently increased the number of dopamine neurons” and the “total number of neurons (NeuN immunoreactivity)” value (Nurr1-/- cortical cells) was “no increase”. For the same compound, the “increase in number of Nurr1-positive cells” value (hippocampal cultures) was 36%, the “number of Nurr1 non-expressing cells” value (hippocampal cultures) was “did not increase” and the “number of NeuN-positive cells (entire neuronal-cell population)” value [3] was “do not produce a general increase”.

`CC1(C)CCC(C)(C)c2cc(C3(c4ccc(C(=O)O)cc4)OCCO3)ccc21` [SR11237] was tested, and the “number of dopamine secreting cells” value ([1]; 72 hour incubation, compared to TTNPB, all-trans retinoic acid or no RXR ligand) was “increased dopamine secreting cells”, the “number of TH-immunoreactive (IR) cells” value [1] was “dose-dependent increase” and the “proliferation (BrdU)” value [4] was “not due to increased proliferation”.

With `C/C(=C\c1ccc(C(=O)O)cc1)c1ccc2c(c1)C(C)(C)CCC2(C)C` [TTNPB] the “effect on the neurotrophic effect of LG268” value ([1]; in the presence of LG268) was “blocks the neurotrophic effect” and the “number of TH-immunoreactive (IR) cells” value [1] was “does not increase the number of TH-IR cells”.
